Assay results taken from US6479435B1, “Diaryl ethers and processes for their preparation and herbicidal and desiccant compositions containing them” (ISK Americas Incorporated, priority 1997, dated 2002).

How the values were obtained:
Type in all cases: in vivo
[1] = test system: redroot pigweed (Amaranthus retroflexus, AMARE); assay: Post-emerge greenhouse herbicide test, phytotoxicity rating; details: Amaranthus retroflexus, post-emergence, 336 h, 14 days after application, scale 0-100; for pest or weed control at 63 g/ha: rate 63 g ai/ha; for pest or weed control at 500 g/ha: rate 500 g ai/ha
Procedure, shortened: (§1)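 Scores use a 0 (no damage) to 100 (complete kill) scale, taken 14 days after a foliar spray. Acetone solutions with 0.25% v/v non-ionic surfactant were applied by track sprayer at 187 l/ha and 63-1000 g ai/ha to bottom-watered 2-3 leaf plants.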

[2] = test system: green foxtail (Setaria viridis, SETVI); assay: as above; details: Setaria viridis, post-emergence, 336 h, 14 days after application, scale 0-100; for pest or weed control at 63 g/ha: rate 63 g ai/ha; for pest or weed control at 500 g/ha: rate 500 g ai/ha
Procedure, shortened: as §1

[3] = test system: ivyleaf morningglory (Ipomoea hederacea, IPOHE); assay: as above; details: Ipomoea, post-emergence, 336 h, 14 days after application, scale 0-100; for pest or weed control at 63 g/ha: rate 63 g ai/ha; for pest or weed control at 500 g/ha: rate 500 g ai/ha
Procedure, shortened: as §1

[4] = test system: velvetleaf (Abutilon theophrasti, ABUTH); assay: as above; details: Abutilon theophrasti, post-emergence, 336 h, 14 days after application, scale 0-100; for pest or weed control at 63 g/ha: rate 63 g ai/ha; for pest or weed control at 500 g/ha: rate 500 g ai/ha
Procedure, shortened: as §1

[5] = test system: Johnsongrass (Sorghum halepense, SORHA); assay: as above; details: Sorghum halepense, post-emergence, 336 h, 14 days after application, scale 0-100; for pest or weed control at 63 g/ha: rate 63 g ai/ha; for pest or weed control at 500 g/ha: rate 500 g ai/ha
Procedure, shortened: as §1

[6] = test system: large crabgrass (Digitaria sanguinalis, DIGSA); assay: as above; details: Digitaria sanguinalis, post-emergence, 336 h, 14 days after application, scale 0-100; for pest or weed control at 63 g/ha: rate 63 g ai/ha; for pest or weed control at 500 g/ha: rate 500 g ai/ha
Procedure, shortened: as §1

[7] = test system: sicklepod (Cassia obtusifolia, CASOB); assay: as above; details: Senna obtusifolia, post-emergence, 336 h, 14 days after application, scale 0-100; for pest or weed control at 63 g/ha: rate 63 g ai/ha; for pest or weed control at 500 g/ha: rate 500 g ai/ha
Procedure, shortened: as §1

[8] = test system: lambsquarters (Chenopodium album, CHEAL); assay: as above; details: Chenopodium album, post-emergence, 336 h, 14 days after application, scale 0-100; for pest or weed control at 63 g/ha: rate 63 g ai/ha; for pest or weed control at 500 g/ha: rate 500 g ai/ha
Procedure, shortened: as §1

[9] = test system: barnyardgrass (Echinochloa crusgalli, ECHCG); assay: as above; details: Echinochloa crus-galli, post-emergence, 336 h, 14 days after application, scale 0-100; for pest or weed control at 63 g/ha: rate 63 g ai/ha; for pest or weed control at 500 g/ha: rate 500 g ai/ha
Procedure, shortened: as §1

[10] = test system: green foxtail (Setaria viridis, SETVI); assay: Pre-emerge greenhouse herbicide test, phytotoxicity rating; details: Setaria viridis, pre-emergence, 336 h, 14 days after application, rating scale 0-100; for pest or weed control at 125 g/ha: Rate 125 g al/ha; for pest or weed control at 500 g/ha: Rate 500 g al/ha
Procedure, shortened: (§2)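 Visual 0–100 injury rating (100 = all plants dead) taken 14 days after treatment. Rates of 125–1000 g ai/ha in acetone, 187 l/ha, were sprayed onto soil one day post-sowing; pots were surface-watered to incorporate, then bottom-watered.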

[11] = test system: ivyleaf morningglory (Ipomoea hederacea, IPOHE); assay: as above; details: Ipomoea, pre-emergence, 336 h, 14 days after application, rating scale 0-100; for pest or weed control at 125 g/ha: Rate 125 g al/ha; for pest or weed control at 500 g/ha: Rate 500 g al/ha
Procedure, shortened: as §2

[12] = test system: velvetleaf (Abutilon theophrasti, ABUTH); assay: as above; details: Abutilon theophrasti, pre-emergence, 336 h, 14 days after application, rating scale 0-100; for pest or weed control at 125 g/ha: Rate 125 g al/ha; for pest or weed control at 500 g/ha: Rate 500 g al/ha
Procedure, shortened: as §2

[13] = test system: Johnsongrass (Sorghum halepense, SORHA); assay: as above; details: Sorghum halepense, pre-emergence, 336 h, 14 days after application, rating scale 0-100; for pest or weed control at 125 g/ha: Rate 125 g al/ha; for pest or weed control at 500 g/ha: Rate 500 g al/ha
Procedure, shortened: as §2

[14] = test system: lambsquarters (Chenopodium album, CHEAL); assay: as above; details: Chenopodium album, pre-emergence, 336 h, 14 days after application, rating scale 0-100; for pest or weed control at 125 g/ha: Rate 125 g al/ha; for pest or weed control at 500 g/ha: Rate 500 g al/ha
Procedure, shortened: as §2

[15] = test system: barnyardgrass (Echinochloa crusgalli, ECHCG); assay: as above; details: Echinochloa crus-galli, pre-emergence, 336 h, 14 days after application, rating scale 0-100; for pest or weed control at 125 g/ha: Rate 125 g al/ha; for pest or weed control at 500 g/ha: Rate 500 g al/ha
Procedure, shortened: as §2

Structure (SMILES)	pest or weed control at 63 g/ha [1] [%]	pest or weed control at 500 g/ha [1] [%]	pest or weed control at 63 g/ha [2] [%]	pest or weed control at 500 g/ha [2] [%]	pest or weed control at 63 g/ha [3] [%]	pest or weed control at 500 g/ha [3] [%]	pest or weed control at 63 g/ha [4] [%]	pest or weed control at 500 g/ha [4] [%]	pest or weed control at 63 g/ha [5] [%]	pest or weed control at 500 g/ha [5] [%]	pest or weed control at 63 g/ha [6] [%]	pest or weed control at 500 g/ha [6] [%]	pest or weed control at 63 g/ha [7] [%]	pest or weed control at 500 g/ha [7] [%]	pest or weed control at 63 g/ha [8] [%]	pest or weed control at 500 g/ha [8] [%]	pest or weed control at 63 g/ha [9] [%]	pest or weed control at 500 g/ha [9] [%]	pest or weed control at 125 g/ha [10] [%]	pest or weed control at 500 g/ha [10] [%]	also measured
Nn1c(C(F)(F)F)cc(=O)n(-c2cc(Oc3ccccc3)c(Cl)cc2F)c1=O [Compound 9-26, 1-Amino-3-[4-chloro-2-fluoro-5-phenoxyphenyl]-6-trifluoromethyl-1,2,3,4-tetrahydropyrimidine-2,4-dione]	100	100	100	100	100	100	100	100	90	100	80	50	100	100	100	100	80	100	100	100	pest or weed control at 125 g/ha [11]: 100%; pest or weed control at 500 g/ha [11]: 60%; pest or weed control at 125 g/ha [12]: 100%; pest or weed control at 500 g/ha [12]: 100%; pest or weed control at 125 g/ha [13]: 90%; pest or weed control at 500 g/ha [13]: 100%; pest or weed control at 125 g/ha [14]: 100%; pest or weed control at 500 g/ha [14]: 100%; pest or weed control at 125 g/ha [15]: 95%; pest or weed control at 500 g/ha [15]: 100%
Nn1c(C(F)(F)F)cc(=S)n(-c2cc(Oc3ccc(Cl)cn3)c(Cl)cc2F)c1=O [Compound 9-28, 1-amino-3-[4-chloro-2-fluoro-5-(5-chloro-2-pyridyloxy)phenyl]-6-trifluoromethyl-1,2,3,4tetrahydro-2-oxo-4-thioxopyrimidine]	90	100	25	50	95	100	90	100	0	30	0	0	10	50	80	100	0	10	100	100	pest or weed control at 125 g/ha [11]: 40%; pest or weed control at 500 g/ha [11]: 70%; pest or weed control at 125 g/ha [12]: 100%; pest or weed control at 500 g/ha [12]: 100%; pest or weed control at 125 g/ha [13]: 20%; pest or weed control at 500 g/ha [13]: 80%; pest or weed control at 125 g/ha [14]: 100%; pest or weed control at 500 g/ha [14]: 100%; pest or weed control at 125 g/ha [15]: 20%; pest or weed control at 500 g/ha [15]: 80%
